Experimental findings from ChEMBL document CHEMBL1140393, “Neamine dimers targeting the HIV-1 TAR RNA” (Bioorg Med Chem Lett, 2005) are described below.

What all share (set-up): species or system Homo sapiens
A short description of experiment [1]: Effect towards transactivation responsive RNA-binding protein at pH 7.5, (10 mM Tris-HCl, 150 mM KCl)by using fluorimetric competition assay.
A short description of experiment [2]: Effect against transactivation responsive RNA-binding protein at pH 7.4 (50 mM Tris-HCl […]) in fluorimetric competition assay.
The nature of experiment [3]: Effect against trans-activation responsive RNA-binding protein at pH 7.4 (50 mM Tris-HCl and 20 mM KCl) in fluorimetric competition assay.

SMILES strings stand for the structures. pIC50: −log10 of the molar value.

The term pIC50 denotes the IC50 on a negative log10 scale, so that one unit is a factor of ten. On to `CN(CC(=O)NCCCCCCO[C@@H]1[C@H](O)[C@H](N)C[C@@H](N)[C@H]1O[C@H]1O[C@@H](CN)[C@@H](O)[C@H](O)[C@@H]1N)CC(=O)NCCCCCCO[C@@H]1[C@H](O)[C@H](N)C[C@@H](N)[C@H]1O[C@H]1O[C@@H](CN)[C@@H](O)[C@H](O)[C@@H]1N`, for which the results for the pIC50 in experiment [1] and in experiment [2] were 6.00 and 6.82, respectively.
For `CN(CC(=O)NCCCCCCO[C@H]1[C@H](O)[C@H](N)[C@@H](O[C@H]2[C@H](O)[C@H](O)[C@H](N)C[C@H]2N)O[C@H]1CN)CC(=O)NCCCCCCO[C@H]1[C@H](O)[C@H](N)[C@@H](O[C@H]2[C@H](O)[C@H](O)[C@H](N)C[C@H]2N)O[C@H]1CN`, in that order: 7.30 and 6.48.
Consider `NCC1OC(OC2C(N)CC(N)C(O)C2O)C(N)C(O)C1OCCCCCCNC(=O)CCC(=O)NCCCCCCOC1C(CN)OC(OC2C(N)CC(N)C(O)C2O)C(N)C1O` (configuration not stated), for which the negative-log IC50 (pIC50) in experiment [1] was 6.32; in experiment [2] it was 6.82.
For `NCC1OC(OC2C(N)CC(N)C(O)C2OCCCCCCNC(=O)CCC(=O)NCCCCCCOC2C(O)C(N)CC(N)C2OC2OC(CN)C(O)C(O)C2N)C(N)C(O)C1O` (configuration not stated), in that order: 6.05 and 6.40.
For `NC[C@@H]1O[C@H](O[C@H]2[C@@H](O)[C@H](O[C@@H]3[C@@H](O)[C@H](N)C[C@H](N)[C@H]3O[C@H]3O[C@H](CN)[C@@H](O)[C@H](O)[C@H]3N)O[C@@H]2CO)[C@H](N)[C@@H](O)[C@@H]1O` [FRAMYCETIN], in that order: 4.46 and 5.15.
Consider `NC[C@H]1O[C@H](O[C@H]2[C@H](O)[C@@H](O)[C@H](N)C[C@@H]2N)[C@H](N)[C@@H](O)[C@@H]1O` [NEAMINE], for which the negative-log IC50 (pIC50) in experiment [1] was 4.40; in experiment [3], 5.00.
